Laboratory results taken from publication PMC6728138, “Quantitative mapping of protein-peptide affinity landscapes using spectrally encoded beads” (eLife, 2019).
Where two headings read alike, the source gives them in different places. Ends that are not written are not given here.

Columns and labels:
[1] = tested on: CN; settings: ref Fruman et al., 1992; cited from earlier work
From the text: Consistent with MRBLE-pep measurements, ...

[2] = tested on: NFAT-driven luciferase activity in HEK293T cells; assay: In vivo calcineurin activity assay (NFAT dual luciferase reporter); assay type: cell-based; settings: initial in vivo experiment, FK506 1 μM
From the text: To test the degree to which in vitro MRBLE-pep affinities predict in vivo inhibition, we used a previously developed dual luciferase reporter assay to assess the activity of the NFAT2 transcription factor in HEK293T cells (Figure 6A) ([Grigoriu et al., 2013]). NFAT2 must be dephosphorylated by CN to accumulate in the nucleus, where it activates transcription of its target genes, and this interaction can be inhibited by peptides or small molecules that binds to CN. Reduction of NFAT2-dependent transcriptional activity upon expression of a competing PxIxIT peptide therefore reflects, quantitatively, the affinity of the inhibitor peptide for CN. Candidate PxIxIT inhibitors were co-expressed as GFP-fusion proteins within cells to enhance their stability and facilitate direct measurement of inhibitor concentrations.
PxIxIT peptides were fused to eGFP in pEGFPc1 vector. HEK293T cells were transfected with pEGFPc1 clones, pNFAT-Luc and CMV-Renilla in a 6-well plate format. 18 hr post transfection, 1μM FK506 or DMSO (vehicle) was added to the media as needed. […] 6 hr after pathway activation, cells were collected, washed in PBS and re-suspended in DMEM media. 80% of the cells were used to measure luciferase activity and renilla using the Dual-Glo assay system (Promega) with three technical replicates. The remaining cells were frozen and stored at −80°C. Cell lysates were prepared in RIPA buffer. 15–20 μg of lysate was analyzed by Western for expression of GFP. GFP signal was normalized to either actin or tubulin. Luciferase activity (normalized to renilla expression) was further normalized to eGFP expression. Data represent at least three experimental replicates.

[3] = target: T1, calcineurin (CN) (Homo sapiens, UniProt Q08209); assay: MRBLE-pep calcineurin binding assay (concentration-dependent)
T1 construct: human calcineurin A isoforms (truncated at residue 400); made in house; host or cells: E. coli BL21 (DE3)
T1 sequence (Q08209 1-400 limits assumed): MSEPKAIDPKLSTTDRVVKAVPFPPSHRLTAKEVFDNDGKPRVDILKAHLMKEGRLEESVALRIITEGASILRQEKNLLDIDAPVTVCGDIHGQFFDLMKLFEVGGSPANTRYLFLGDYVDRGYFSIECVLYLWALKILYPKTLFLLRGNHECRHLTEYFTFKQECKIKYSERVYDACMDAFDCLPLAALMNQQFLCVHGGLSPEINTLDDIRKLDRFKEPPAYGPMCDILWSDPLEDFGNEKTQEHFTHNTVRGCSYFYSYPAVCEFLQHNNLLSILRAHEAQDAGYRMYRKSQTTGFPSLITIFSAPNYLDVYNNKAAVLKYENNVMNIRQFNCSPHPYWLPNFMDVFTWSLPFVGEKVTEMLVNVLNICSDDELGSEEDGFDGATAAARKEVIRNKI
T1 sequence (P63098 whole entry partner, the tested form may be a part, canonical isoform): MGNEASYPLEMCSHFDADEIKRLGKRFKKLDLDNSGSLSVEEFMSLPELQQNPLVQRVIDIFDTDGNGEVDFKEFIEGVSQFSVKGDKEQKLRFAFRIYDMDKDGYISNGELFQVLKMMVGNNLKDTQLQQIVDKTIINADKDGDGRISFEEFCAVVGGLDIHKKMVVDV
Method: MRBLEs were prepared by transferring a 20 μL aliquot from a 600 μL suspension (∼3000–8000 beads depending on pellet size) to a 100 μL PCR strip (20 μL for each CN concentration), exchanging buffer via 3 cycles of iterative pelleting, decanting, and resuspension with 0.1% PBST containing 5% BSA, pH = 7.5 (100 μL), and then left mixing at ∼5 °C on a rotator in the same wash buffer overnight (∼14 hr). MRBLEs were then buffer exchanged once again with CN binding buffer (50 mM Tris pH = 7.5, 150 mM NaCl, 0.1% TWEEN 20) via three iterative cycles of pelleting, decanting, and resuspension.
After incubation, MRBLEs were pelleted, decanted, and washed once with 0.1% PBST (100 μL). After a final round of pelleting and decanting, 20 μL of 0.1% PBST was added and the beads were transferred to a quartz microscope slide for imaging.
The affinity ( Kd ) for each peptide in a MBRLE library was determined via a two-step nonlinear regression using a single-site binding model:(1) Ii=(Imax[CNtotal])/(Kd,i+[CNtotal]) where Ii is the median measured fluorescence intensity for each peptide, Kd,i is the dissociation constant for that interaction, [ CNtotal ] is total CN concentration, and Imax is a global variable representing the fluorescence intensity once MRBLE-pep beads are saturated. First, we determined the global saturation value ( Imax ), by globally fitting the top 80% highest-intensity MRBLE codes. Next, we globally fit the entire data set using this Imax value to yield an estimated absolute affinity ( Kd ) for all peptides in the library. […] Differences in binding affinity were calculated relative to a reference peptide using the standard equation:(2) ΔΔG=RTln(Kd,i/Kd,ref)
Next, we used this reference value and calculated differences in binding affinity ( ΔΔG ) to estimate absolute Kd values for each peptide within the calibration and full calibration libraries (Figure 2—source data 1, Figure 2—source data 2, Figure 5—source data 1, Figure 5—source data 2, Figure 5—source data 3, Figure 5—source data 4).

In the case of `C=CC[C@@H]1/C=C(\C)C[C@H](C)C[C@H](OC)[C@H]2O[C@@](O)(C(=O)C(=O)N3CCCC[C@H]3C(=O)O[C@H](/C(C)=C/[C@@H]3CC[C@@H](O)[C@H](OC)C3)[C@H](C)[C@@H](O)CC1=O)[C@H](C)C[C@@H]2OC` [FK506], the IC50 [1] is listed as roughly 0.5 nM, the “NFAT-driven luciferase activity, normalized to renilla and eGFP expression, relative to empty vector (Data)” value ([2]; replicate 1) is listed as 0.09 and the “NFAT-driven luciferase activity, normalized, relative to empty vector (Data)” value ([2]; replicate 2) is listed as 0.08616. The “NFAT-driven luciferase activity, normalized, relative to empty vector (Data)” value ([2]; replicate 3) was 0.09188.

HAVIVITGPH-NH2 showed a Kd ([3]; bold value over the codes, read-out: kd, 'Triplicate high' library) of 1270 ± 130 nM.

For HPSIVITGPH-NH2, the Kd ([3]; kd, 'Triplicate high' library) was 880 ± 260 nM.

HPVIVVTGPH-NH2 gave a Kd ([3]; apparent Kd, 'Triplicate low' (Figure 2C, measure not given)) of 2000 ± 400 nM and a Kd ([3]; kd, 'Triplicate high' library) of 920 ± 250 nM.
